Source: ChEMBL document CHEMBL1201862, “PubChem BioAssay data set” (2004)
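Test compounds were applied to cells in 96-well plates for 48 hours at 5 doses. GI50 = concentration required for 50% inhibition of growth.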 Activity calls are given as the source filed them. Cut-off read from the data, not from the text of the source: active = GI50 up to about 1.1 µM and inactive = higher.

Tests used:
Assay in all cases: NCI-60 cell line screen, 48 h
LOX IMVI = test system: LOX IMVI
COLO 205 = test system: COLO 205
SK-MEL-28 = test system: SK-MEL-28
SK-MEL-5 = test system: SK-MEL-5
OVCAR-8 = test system: OVCAR-8
NCI-H460 = test system: NCI-H460
SF-268 = test system: SF-268
RPMI-8226 = test system: RPMI-8226
KM12 = test system: KM12
NCI-H226 = test system: NCI-H226
UACC-257 = test system: UACC-257
786-0 = test system: 786-0
A549 = test system: A549
SK-OV-3 = test system: SK-OV-3
HT-29 = test system: HT-29
TK-10 = test system: TK-10
SNB-75 = test system: SNB-75
A498 = test system: A498
NCI-H23 = test system: NCI-H23

SMILES | GI50 (LOX IMVI) | GI50 (COLO 205) | GI50 (SK-MEL-28) | GI50 (SK-MEL-5) | GI50 (OVCAR-8) | GI50 (NCI-H460) | GI50 (SF-268) | GI50 (RPMI-8226) | GI50 (KM12) | GI50 (NCI-H226) | GI50 (UACC-257) | GI50 (786-0) | GI50 (A549) | GI50 (SK-OV-3) | GI50 (HT-29) | GI50 (TK-10) | GI50 (SNB-75) | GI50 (A498) | GI50 (NCI-H23)
CC(=O)C1=C(C)NC2C=CC=CN12 (stereo not given) | > 100 µM (inactive) | > 100 µM (inactive) | > 100 µM (inactive) | > 100 µM (inactive) | > 100 µM (inactive) | > 100 µM (inactive) | > 100 µM (inactive) | > 100 µM (inactive) | > 100 µM (inactive) | > 100 µM (inactive) | > 100 µM (inactive) | > 100 µM (inactive) | > 100 µM (inactive) | > 100 µM (inactive) | > 100 µM (inactive) | > 100 µM (inactive) | > 100 µM (inactive) | > 100 µM (inactive) | > 100 µM (inactive)
CC(=O)OC1COC(N2C(=O)C(=O)c3ccccc32)C(OC(C)=O)C1OC(C)=O (stereo not given) | > 100 µM (inactive) | > 100 µM (inactive) | > 100 µM (inactive) | > 100 µM (inactive) | > 100 µM (inactive) | > 100 µM (inactive) | > 100 µM (inactive) | > 100 µM (inactive) | > 100 µM (inactive) | > 100 µM (inactive) | > 100 µM (inactive) | > 100 µM (inactive) | > 100 µM (inactive) | > 100 µM (inactive) | > 100 µM (inactive) | > 100 µM (inactive) | > 100 µM (inactive) | > 100 µM (inactive) | > 100 µM (inactive)
O=C1C=C(O)c2nc(O)ccc2C1=O | > 100 µM (inactive) | > 100 µM (inactive) | > 100 µM (inactive) | > 100 µM (inactive) | > 100 µM (inactive) | > 100 µM (inactive) | > 100 µM (inactive) | > 100 µM (inactive) |  | > 100 µM (inactive) | > 100 µM (inactive) | > 100 µM (inactive) | > 100 µM (inactive) | > 100 µM (inactive) | > 100 µM (inactive) | > 100 µM (inactive) | > 100 µM (inactive) | > 100 µM (inactive) | > 100 µM (inactive)
Cc1ccc(NC(=O)C(=O)C(C#N)c2ccccc2C)cc1C (stereo not given) | > 41.2 µM (inactive) | > 45.5 µM (inactive) | > 100 µM (inactive) | > 100 µM (inactive) | > 100 µM (inactive) | > 48.5 µM (inactive) | > 100 µM (inactive) | > 57.8 µM (inactive) | > 100 µM (inactive) | > 100 µM (inactive) | > 100 µM (inactive) | > 68.2 µM (inactive) | > 91.6 µM (inactive) | > 100 µM (inactive) | > 100 µM (inactive) | > 100 µM (inactive) | > 69.3 µM (inactive) | > 100 µM (inactive) | > 100 µM (inactive)
CCOC(=O)C1=CN=C2C(=O)N(c3ccccc3)N(C)C2(C)C1=N (stereo not given) | > 100 µM (inactive) | > 100 µM (inactive) | > 100 µM (inactive) | > 100 µM (inactive) | > 100 µM (inactive) | > 100 µM (inactive) |  | > 100 µM (inactive) | > 100 µM (inactive) | > 100 µM (inactive) | > 100 µM (inactive) | > 100 µM (inactive) | > 100 µM (inactive) | > 100 µM (inactive) |  | > 100 µM (inactive) | > 100 µM (inactive) | > 100 µM (inactive) | > 100 µM (inactive)
N#CC(/C(CCCC(=O)Nc1cccc([N+](=O)[O-])c1)=N/NC(=O)c1cc2ccccc2cc1O)c1ccccc1 (stereo not given) | 16.4 µM (inactive) | 23.6 µM (inactive) | > 100 µM (inactive) | 21.2 µM (inactive) | 17.5 µM (inactive) | 21.2 µM (inactive) | 48.1 µM (inactive) | 35.4 µM (inactive) | 62.2 µM (inactive) | > 100 µM (inactive) | 24.4 µM (inactive) | 24.2 µM (inactive) | 47.3 µM (inactive) | 61.8 µM (inactive) | 36.4 µM (inactive) | 31.1 µM (inactive) | > 100 µM (inactive) | 35.3 µM (inactive) | 20 µM (inactive)
COc1ccc(/C=C2/CSC/C(=C/c3ccc(OC)c(OC)c3)C2=O)cc1OC | 1.27 µM (inactive) | 2.24 µM (inactive) | 2.94 µM (inactive) | 2.44 µM (inactive) | 0.664 µM (active) | 2.23 µM (inactive) | 1.99 µM (inactive) | 0.472 µM (active) | 0.798 µM (active) | 1.92 µM (inactive) | 4.11 µM (inactive) | 2.02 µM (inactive) | 2.27 µM (inactive) | 6.73 µM (inactive) | 1.09 µM (active) | 3.9 µM (inactive) | 6.4 µM (inactive) | 4.93 µM (inactive) | 2.3 µM (inactive)
O=C1c2ccccc2C(=O)N1C/C=N/NS(=O)(=O)c1ccc2ccccc2c1 |  | > 100 µM (inactive) |  | > 100 µM (inactive) | > 100 µM (inactive) | > 100 µM (inactive) |  | > 100 µM (inactive) | > 100 µM (inactive) | > 100 µM (inactive) | > 100 µM (inactive) | > 100 µM (inactive) | > 100 µM (inactive) | > 100 µM (inactive) | > 100 µM (inactive) | > 100 µM (inactive) | > 100 µM (inactive) | > 100 µM (inactive) | > 100 µM (inactive)
c1ccc(P2c3ccccc3Nc3ccccc32)cc1 | 45.8 µM (inactive) | 32.7 µM (inactive) | > 100 µM (inactive) | 30.8 µM (inactive) | > 100 µM (inactive) | 62.1 µM (inactive) | 71.6 µM (inactive) |  | 37.2 µM (inactive) | 99.5 µM (inactive) | 43.1 µM (inactive) | > 100 µM (inactive) | 42.5 µM (inactive) | > 100 µM (inactive) | 49 µM (inactive) | > 100 µM (inactive) | 11.4 µM (inactive) | 27.1 µM (inactive) | 72.9 µM (inactive)
CCc1cccc(C(C)C)c1C1C(=O)C(=O)N(c2nc3ccccc3s2)C(=O)C1=O | > 100 µM (inactive) | > 100 µM (inactive) | > 100 µM (inactive) | > 100 µM (inactive) |  | > 100 µM (inactive) | > 100 µM (inactive) | > 100 µM (inactive) | > 100 µM (inactive) | > 100 µM (inactive) | > 100 µM (inactive) | > 100 µM (inactive) | > 100 µM (inactive) | > 100 µM (inactive) | > 100 µM (inactive) | > 100 µM (inactive) | > 100 µM (inactive) | > 100 µM (inactive) | > 100 µM (inactive)
CN(C)c1nc(N(C)C)sc(=O)n1 |  |  | > 100 µM (inactive) | > 100 µM (inactive) | > 100 µM (inactive) | > 100 µM (inactive) | > 100 µM (inactive) | > 100 µM (inactive) | > 100 µM (inactive) | > 100 µM (inactive) | > 100 µM (inactive) | > 100 µM (inactive) | > 100 µM (inactive) | > 100 µM (inactive) | > 100 µM (inactive) | > 100 µM (inactive) | > 100 µM (inactive) | > 100 µM (inactive) | > 100 µM (inactive)
COc1cc2c(cc1OC)C(C(CBr)CBr)N(C1CCCC1)CC2 (stereo not given) | > 100 µM (inactive) | > 100 µM (inactive) | > 100 µM (inactive) | > 100 µM (inactive) | > 100 µM (inactive) | > 100 µM (inactive) | > 100 µM (inactive) | > 100 µM (inactive) | > 100 µM (inactive) | 82.6 µM (inactive) | > 100 µM (inactive) | > 100 µM (inactive) | > 100 µM (inactive) | > 100 µM (inactive) | > 100 µM (inactive) | > 100 µM (inactive) | > 100 µM (inactive) | > 100 µM (inactive) | > 100 µM (inactive)
Cn1nc(C(=O)N2CC(CCl)c3c2cc([N+](=O)[O-])c2ccccc32)cc1NC(=O)Nc1cc(C(=O)N2CC(CCl)c3c2cc([N+](=O)[O-])c2ccccc32)nn1C (stereo not given) |  | > 100 µM (inactive) | > 100 µM (inactive) | > 100 µM (inactive) |  | > 100 µM (inactive) | 48.5 µM (inactive) | > 100 µM (inactive) | > 100 µM (inactive) | > 100 µM (inactive) | > 100 µM (inactive) | 79.6 µM (inactive) | > 100 µM (inactive) | > 100 µM (inactive) |  | > 100 µM (inactive) | > 100 µM (inactive) | > 100 µM (inactive) | > 100 µM (inactive)
C[N+](C)(C)CC1CCCCC1O (stereo not given) | > 100 µM (inactive) | > 100 µM (inactive) | > 100 µM (inactive) | > 100 µM (inactive) | > 100 µM (inactive) | > 100 µM (inactive) | > 100 µM (inactive) | > 100 µM (inactive) |  | > 100 µM (inactive) | > 100 µM (inactive) | > 100 µM (inactive) |  | > 100 µM (inactive) | > 100 µM (inactive) | > 100 µM (inactive) | > 100 µM (inactive) | > 100 µM (inactive) | > 100 µM (inactive)
O=C(OCc1nc2ccc(Br)cc2c(=O)n1-c1ccccc1)c1ccccc1O | > 100 µM (inactive) | > 100 µM (inactive) | > 100 µM (inactive) | 18.1 µM (inactive) | > 100 µM (inactive) | > 100 µM (inactive) | 78.9 µM (inactive) | 29.4 µM (inactive) | > 100 µM (inactive) | 57.5 µM (inactive) | 61.5 µM (inactive) | 74.8 µM (inactive) | 86.5 µM (inactive) | > 100 µM (inactive) | 84.9 µM (inactive) | > 100 µM (inactive) | 28.4 µM (inactive) | 58.3 µM (inactive) | 37.3 µM (inactive)
